Assay [1] addresses T1, rBASIC (rat bile acid-sensitive ion channel) (Rattus norvegicus, UniProt Q9R0W5).
T1 sequence (Q9R0W5 1-495): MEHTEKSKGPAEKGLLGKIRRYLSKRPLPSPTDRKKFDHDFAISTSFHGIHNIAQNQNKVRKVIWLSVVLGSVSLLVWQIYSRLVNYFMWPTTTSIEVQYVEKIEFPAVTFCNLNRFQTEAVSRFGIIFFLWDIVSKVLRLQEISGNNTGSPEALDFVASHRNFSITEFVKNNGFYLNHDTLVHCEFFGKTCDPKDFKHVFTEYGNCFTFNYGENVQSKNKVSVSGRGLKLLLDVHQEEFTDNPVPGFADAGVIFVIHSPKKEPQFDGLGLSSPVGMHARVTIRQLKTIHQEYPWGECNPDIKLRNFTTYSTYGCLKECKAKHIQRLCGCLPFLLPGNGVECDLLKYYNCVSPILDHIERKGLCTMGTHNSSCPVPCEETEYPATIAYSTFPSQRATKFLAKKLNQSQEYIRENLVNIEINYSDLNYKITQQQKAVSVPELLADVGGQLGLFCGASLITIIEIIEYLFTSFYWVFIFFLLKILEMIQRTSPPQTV
The assay can be described thus: oocyte current recording, co-application. The assay is classed as cell-based. The note with it: 0.5 mM CDCA co-applied with 1.0 mM UDCA; CDCA not tested alone here.

The target of assay [2] is T1, rBASIC (rat bile acid-sensitive ion channel). The assay can be described thus: oocyte current recording, concentration-response, Hill fit. The format is cell-based.

Take `C[C@H](CCC(=O)O)[C@H]1CC[C@H]2[C@@H]3[C@H](O)C[C@@H]4C[C@H](O)CC[C@]4(C)[C@H]3CC[C@]12C` [CDCA]: the “oocyte current recording, co-application” value in assay [1] is “CDCA and UDCA synergistically activate rBASIC”.

The compound `C[C@H](CCC(=O)O)[C@H]1CC[C@H]2[C@@H]3C[C@H](O)[C@@H]4C[C@H](O)CC[C@]4(C)[C@H]3CC[C@]12C` [HDCA] gave an EC50 in assay [2] of 2.1 ± 0.04 mM.

Compound `C[C@H](CCC(=O)O)[C@H]1CC[C@H]2[C@@H]3[C@@H](O)C[C@@H]4C[C@H](O)CC[C@]4(C)[C@H]3CC[C@]12C` [UDCA] gave an EC50 in assay [2] of 2.5 ± 0.04 mM. The EC50 values of the last two compounds are within 1.5-fold of each other.

The record behind these values is paper PMC3589280 (Channels, 2013).
